In experiment [1] the test system is Lolium multiflorum. Briefly: Pre-emergence effect on weeds. Type of experiment: in vivo. Particulars: dosage 1000 g of a.i./ha, scored visually after 3 to 4 weeks. The text has this: (§1) 1. Pre-Emergence Effect on Weeds
(§2) Seeds of monocotyledonous and dicotyledonous weed plants are placed into sandy loam soil in cardboard pots and covered with soil. The compounds of the invention, formulated as wettable powders or emulsion concentrates, are then applied to the surface of the soil cover in the form of aqueous suspensions or emulsions at an application rate of 600 to 800 l of water/ha (converted), in various dosages. After the treatment, the pots are placed in a greenhouse and kept under good growth conditions for the weeds. After the test plants have emerged, the damage to the plants or the negative effect on the emergence was scored visually after a test period of 3 to 4 weeks by comparison with untreated controls. Here, the compounds according to the invention have excellent activity against a broad spectrum of economically important monocotyledonous and dicotyledonous harmful plants, see Tables A to G.

Experiment [2] has as its system Amaranthus retroflexus. Description: Pre-emergence effect on weeds. Type of experiment: in vivo. Particulars: dosage 1000 g of a.i./ha, scored visually after 3 to 4 weeks.
Description: as §1, §2

The subject of experiment [3] is Setaria viridis. Briefly: Pre-emergence effect on weeds. The class given is in vivo. Particulars: dosage 1000 g of a.i./ha, scored visually after 3 to 4 weeks.
Description: as §1, §2

Another experiment relates to Stellaria media. Briefly: Pre-emergence effect on weeds. Type of experiment: in vivo. Particulars: dosage 1000 g of a.i./ha, scored visually after 3 to 4 weeks.
Description: as §1, §2

Experiment [4] is described as follows: Pre-emergence effect on weeds. The class given is in vivo, Sinapis arvensis. Particulars: dosage 1000 g of a.i./ha, scored visually after 3 to 4 weeks.
Description: as §1, §2

In a further experiment the test system is Echinochloa crus galli. Briefly: Herbicidal post-emergence effect on harmful plants. As to conditions: dosage 1000 g of a.i./ha, rated after 3 to 4 weeks. Type of experiment: in vivo. The protocol:
(§3) 2. Herbicidal Post-Emergence Effect on Harmful Plants
(§4) Seeds of monocotyledonous and dicotyledonous harmful plants are placed in sandy loam soil in cardboard pots, covered with soil and cultivated in a greenhouse under good growth conditions. Two to three weeks after sowing, the test plants are treated at the three-leaf stage. The compounds according to the invention, formulated in the form of wettable powders or emulsion concentrates, are sprayed onto the surface of the green parts of the plants at an application rate of 600 to 800 l of water/ha (converted), in various dosages. After the test plants have remained in the greenhouse under optimum growth conditions for 3 to 4 weeks, the effect of the compounds is rated. Here, the compounds according to the invention have excellent activity against a broad spectrum of economically important monocotyledonous and dicotyledonous harmful plants, see Tables H to J.

The next experiment has as its system Cyperus iria. Briefly: Herbicidal post-emergence effect on harmful plants. The class given is in vivo. As to conditions: dosage 1000 g of a.i./ha, rated after 3 to 4 weeks. The protocol:
as §3, §4

Experiment [5] relates to Amaranthus retroflexus. Briefly: Herbicidal post-emergence effect on harmful plants. Particulars: dosage 1000 g of a.i./ha, rated after 3 to 4 weeks. The class given is in vivo. Here is the method:
as §3, §4

Experiment [6] deals with Setaria viridis. Description: Herbicidal post-emergence effect on harmful plants. Particulars: dosage 1000 g of a.i./ha, rated after 3 to 4 weeks. Type of experiment: in vivo. Here is the method:
as §3, §4

The nature of experiment [7]: Pre-emergence effect on weeds. The class given is in vivo, Avena fatua. Particulars: dosage 1000 g of a.i./ha, scored visually after 3 to 4 weeks.
Description: as §1, §2

In experiment [8] the test system is Lolium multiflorum. Briefly: Herbicidal post-emergence effect on harmful plants. Type of experiment: in vivo. As to conditions: dosage 1000 g of a.i./ha, rated after 3 to 4 weeks. The protocol:
as §3, §4

The structures appear in SMILES notation.

With `Cc1cc(Oc2cccc(C(F)(F)F)c2)nc(CNC(=O)C2CC2)n1` [Compound 1-206, N-[(4-methyl-6-{(3-trifluoromethyl)phenoxy}pyrimidin-2-yl)methyl]cyclopropanecarboxamide], the “Herbicidal effect LOLMU” value with Lolium multiflorum [1] was 100%. The “Herbicidal effect AMARE” value with Amaranthus retroflexus [2] is 100%. The “Herbicidal effect SETVI” value in the experiment with Setaria viridis [3] is 100%. In addition, the “Herbicidal effect STEME” value in the experiment on Stellaria media was 100%.
In the case of `Cc1cc(Oc2cccc(C(F)(F)F)c2)nc(CNC(=O)C2CCC2)n1` [Compound 1-505], the “Herbicidal effect LOLMU” value in the experiment on Lolium multiflorum [1] is reported as 100%. Also, the “Herbicidal effect AMARE” value with Amaranthus retroflexus [2] is 100%. The “Herbicidal effect SETVI” value with Setaria viridis [3] was found to be 100%. For the same molecule, the “Herbicidal effect STEME” value in the experiment with Stellaria media is on record as 100%.
Turning to `Cc1cc(Oc2csc(C(F)(F)F)c2)nc(CNC(=O)C2CC2)n1` [Compound 2-205], the “Herbicidal effect SINAL” value in experiment [4] amounted to 90%. For the same molecule, the “Herbicidal effect AMARE” value in the experiment with Amaranthus retroflexus [2] came to 100%; with Amaranthus retroflexus [5] it was 90%. Also, the “Herbicidal effect SETVI” value with Setaria viridis [3] came to 100%; with Setaria viridis [6], 90%. Further, the “Herbicidal effect STEME” value with Stellaria media is 100%. For the same molecule, the “Herbicidal effect ECHCG” value in the experiment with Echinochloa crus galli amounted to 90%. Further, the “Herbicidal effect CYPIR” value in the experiment on Cyperus iria was 90%.
For the molecule `CCc1cc(Oc2csc(C(F)(F)F)c2)nc(CNC(=O)C2CC2)n1` [Compound 2-304], in experiment [4], the “Herbicidal effect SINAL” value was 100%. The “Herbicidal effect AMARE” value with Amaranthus retroflexus [2] worked out at 100%. The “Herbicidal effect SETVI” value with Setaria viridis [3] came out at 100%. For the same molecule, the “Herbicidal effect STEME” value in the experiment on Stellaria media amounted to 100%.
Turning to `CCc1cc(Oc2ccnc(C(F)(F)F)c2)nc(CNC(=O)C2CC2)n1` [Compound 3-306, N-[(4-ethyl-6-{[2-(trifluoromethyl)pyridin-4-yl]oxy}pyrimidin-2-yl)methyl]cyclopropanecarboxamide], the “Herbicidal effect SINAL” value in [4] is listed as 100%. Further, the “Herbicidal effect AVESA” value in experiment [7] is on record as 100%. The “Herbicidal effect AMARE” value in the experiment on Amaranthus retroflexus [2] came out at 100%; with Amaranthus retroflexus [5] it was 90%. The “Herbicidal effect SETVI” value in the experiment on Setaria viridis [3] is listed as 100%. The “Herbicidal effect ECHCG” value in the experiment on Echinochloa crus galli amounted to 90%. Moreover, the “Herbicidal effect CYPIR” value in the experiment with Cyperus iria was determined as 100%. In addition, in the experiment with Lolium multiflorum [8], the “Herbicidal effect LOLMU” value stood at 90%.
Consider `Cc1cc(Oc2cc(C(F)(F)F)nn2C)nc(CNC(=O)C2CC2)n1` [Compound 5-206], for which, in experiment [4], the “Herbicidal effect SINAL” value stood at 100%. Further, the “Herbicidal effect LOLMU” value was 100% in the experiment on Lolium multiflorum [1] and 90% in the experiment with Lolium multiflorum [8]. The “Herbicidal effect SETVI” value with Setaria viridis [3] came to 100%. Besides, the “Herbicidal effect STEME” value with Stellaria media stood at 100%. The “Herbicidal effect ECHCG” value in the experiment on Echinochloa crus galli worked out at 100%. Besides, the “Herbicidal effect CYPIR” value with Cyperus iria is on record as 100%. For the same molecule, the “Herbicidal effect AMARE” value in the experiment on Amaranthus retroflexus [5] turned out to be 90%.
As for `CCc1cc(Oc2cc(C(F)(F)F)nn2C)nc(CNC(=O)C(F)(F)F)n1` [Compound 5-319], the “Herbicidal effect SINAL” value in [4] came to 100%. For the same molecule, the “Herbicidal effect LOLMU” value in the experiment with Lolium multiflorum [1] was 100%. For the same molecule, the “Herbicidal effect SETVI” value in the experiment with Setaria viridis [3] stood at 100%. Further, the “Herbicidal effect STEME” value in the experiment on Stellaria media is listed as 100%.
